Holding throughout (assay): NCI anticancer screen, dose series, 48 h
Assay [1] concerns NCI-H226 lung.
The test system of assay [2] is HT29 colon.
Assay [3] has as its system SF-268 CNS.
In assay [4] the test system is NCI-H460 lung.
The subject of assay [5] is SK-MEL-5 melanoma.
Assay [6] has as its system SN12C renal.
Assay [7] deals with TK-10 renal.
Assay [8] has as its system MDA-MB-435.
The test system of assay [9] is HL-60(TB) leukemia.
Assay [10] deals with RXF 393 renal.

Each structure is given as a SMILES string. Where “and” joins values, the source holds several entries; their conditions need not be identical. Equal entries are not always repeated.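 Results reflect a 48-hour exposure of cells in 96-well plates to compound at five concentrations. GI50: concentration for 50% inhibition of growth. TGI marks complete inhibition of growth.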

As for `NC(=O)c1cc(I)ccc1NC(=O)COc1ccccc1`, the GI50 was 3.48 µM in assay [1]; 0.367 µM in assay [2]; 1.14 µM in assay [3]; 0.433 µM in [4]; 0.533 µM in [5]; 2.3 µM in [6]. Further, the GI50 in assay [7] was 5.38 µM; in [8], 0.107 µM; in assay [9], 0.335 µM; in assay [10], 0.453 µM. Also, the TGI in [1] is > 100 µM; in assay [2], > 100 µM; in [3], 26.1 µM; in assay [4] it was > 100 µM; in assay [5], > 100 µM; in assay [6], > 100 µM. Further, the TGI is 50.9 µM in assay [7], 0.359 µM in [8], 27.8 µM in assay [9] and 4.53 µM in assay [10].
Turning to `Cc1ccc(/C=C2\CNC/C(=C\c3ccc(C)cc3)C2=O)cc1`, the TGI in assay [1] is 4.85 µM and 4.96 µM; in assay [2] it was 1.41 µM and 3.04 µM; in assay [3], 10.3 µM; in assay [4], 2.62 µM and 9.51 µM; in [5] it was 4.1 µM and 6.03 µM; in [6] it was 3.24 µM and 6.25 µM. For the same compound, the TGI in assay [7] is 2.2 µM and 13.9 µM; in assay [8] it was 19.9 µM; in assay [9], 6.46 µM and 2.53 µM; in [10] it was 3.84 µM and 3.29 µM. Besides, the GI50 in assay [2] is 0.392 µM; in [4], 1.21 µM; in assay [5], 2.1 µM; in assay [6] it was 1.77 µM; in [7], 0.509 µM; in [9], 1.41 µM. For the same compound, the GI50 in [10] is 2.24 µM and 1.81 µM.
As to `CC[C@@]1(O)C(=O)OCc2c1cc1n(c2=O)Cc2cc3c(N)cccc3nc2-1`, the GI50 in assay [1] was 0.0179 µM; in [2], 0.0774 µM; in [3] it was 0.00728 µM; in assay [4] it was 0.00439 µM; in assay [5], 0.0214 µM; in [6] it was 0.00812 µM. The GI50 in assay [10] is 0.0893 µM. Further, the TGI in [1] was 0.105 µM; in [2] it was > 30.1 µM; in assay [3] it was 3.06 µM; in [4], 0.462 µM; in assay [5], 0.0806 µM; in assay [6], > 23.3 µM. The TGI is 38.2 µM in [7], 2.16 µM in [8], 0.51 µM in assay [9] and 0.34 µM in assay [10].
Regarding `CCOCNc1ccc(N2C(=O)/C(=C/c3ccc(N(CC)CC)cc3)N=C2c2ccccc2)cc1`, the GI50 in [1] was 8.24 µM; in [2], 6.88 µM; in assay [3], 7.73 µM; in [4], 2.86 µM; in assay [5], 22.9 µM; in assay [6] it was 16.6 µM. Also, the GI50 in assay [7] was 22.3 µM; in [8] it was 69.1 µM; in assay [9], 25 µM; in assay [10], 4.23 µM. Also, the TGI in assay [1], in assay [2], in [3], in assay [4], in [5] and in [6] was > 100 µM throughout. Besides, the TGI in assay [7] is > 100 µM; in assay [8] it was > 100 µM; in [9], > 100 µM; in assay [10], 17.4 µM.
With `Cn1cnc([N+](=O)[O-])c1Sc1nc(N)nc2nc[nH]c12`, the GI50 in [1] is 7.5 µM; in [2] it was 5.19 µM; in [3], 2.39 µM; in [4], 2.25 µM; in [5], 3.89 µM; in assay [6], 6.7 µM. The GI50 in assay [7] was 5.75 µM; in assay [8], 3.31 µM; in assay [9] it was 5.69 µM; in assay [10] it was 5.09 µM. In addition, the TGI in [1] is > 100 µM; in assay [2], > 100 µM; in assay [3], > 100 µM; in assay [4] it was > 100 µM; in assay [5] it was 22.4 µM; in [6] it was > 100 µM. Moreover, the TGI in [7] was > 100 µM; in assay [8] it was > 100 µM; in [9], > 100 µM; in [10] it was > 91.7 µM.
As for `CC1(C)C2CCC13C(=O)C1OC3(C2)C2C(=O)c3c(O)cccc3C(=O)C12` (centres undefined), the GI50 was 7.68 µM in assay [1]; 3.58 µM in assay [2]; 3.06 µM in [3]; 3.75 µM in assay [4]; 0.46 µM in assay [5]; 0.711 µM in assay [6]. Also, the GI50 was 0.979 µM in [7], 0.818 µM in assay [8], 0.355 µM in assay [9] and 1.56 µM in assay [10]. In addition, the TGI is 23.8 µM in [1]; 9.4 µM in assay [2]; 15.3 µM in [3]; 21.2 µM in assay [4]; 1.64 µM in assay [5]; 1.84 µM in assay [6]. For the same compound, the TGI in assay [7] is 2.83 µM; in assay [8], 2.5 µM; in assay [9], 1.2 µM; in assay [10] it was 3.5 µM.
Consider `NC(=O)C(=O)n1ncc(Cl)c(Cl)c1=O`, for which the TGI is > 100 µM in [1]; 44.4 µM in assay [2]; > 92.9 µM in [3]; > 100 µM in assay [4]; 39.4 µM in assay [5]; 40.8 µM in [6]. The TGI in assay [7] is 50.8 µM; in assay [8], > 100 µM; in assay [9], 17.7 µM; in assay [10] it was > 43.1 µM.
